Data as given in US20080039434A1, “Treatment of Interstitial Cystitis with Vitamin D Compounds” (BioXell S. p.A., priority 2004, published 2008).

Tests used:
[1] = tested on: ovalbumin-challenged mouse bladder; assay: Blind histological analysis of bladder sections, allergic IC in mice; format: in vivo; conditions: p<0.05; for number of LMPC in the bladder wall: oral ug/kg: E 0.3, I 3, vs vehicle
Method: (§1) Mice (BALB/c, females 8 weeks old, weight 18-20 g, Charles River, Calco ITA) were sensitized by injecting 10 ug/mouse of chicken ovalbumin from Sigma (OVA, grade V) in the presence of 4 mg of alum (SERVA, Germany) by intraperitoneal injection, once a week for 4 weeks. This induces a sustained level of IgE detectable in serum.
(§2) One or two weeks after the last immunization boost, sensitized mice were anesthetized (1.5% Isoflurane) and then trans-urethrally catheterized (24 gauge, ¾ in.; Angiocath, Becton-Dickson). Slight digital pressure was applied the lower abdomen to drain the urine.
(§3) The urinary bladders were instilled with either 150 ul of either saline or OVA alone, (1 mg/150 ul) infused at a slow rate to avoid trauma and vesico-ureteral reflux and repeated twice within a 30-min interval with the syringe kept in place on the catheter for at least 30 min. Intravesical challenge was repeated 7-10 days after the first one with the same procedure.
(§4) An ethanol stock solution of Compound B (1 mg/ml) was dissolved in Miglyol vehicle at the appropriate concentration. Control animals received the vehicle containing the same amount of ethanol. Drug (or vehicle) treatment was carried out by daily gavage after weighing the animal. Drug solution was prepared calculating a final volume of 100 ul/10 grams body weight, and treatment was started on the day of the first intravesical ovalbumin challenge, maintained daily, but discontinued over the weekends, for 12 days total treatment. FIG. 7 illustrates the timeline of the experiment.
Bladders were explanted from the animals, longitudinally divided in two moieties, one half was either immediately fixed in formalin (10% buffered) for at least 3 hrs or snap frozen in liquid nitrogen upon inclusion in OCT freezing medium (Tissue-Tek Sakura). For histological analysis, fixed bladders were further processed and finally paraffin embedded. Five um sections were serially cut then stained with GIEMSA (BDH, 20% solution, 3 hrs RT) and then de-stained in 0.1% acetic acid for 10 sec. After a clarification step in Xylene, slides were permanently mounted with Eukitt medium and analyzed by a pathologist in a blinded fashion in order to evaluate for inflammatory cell infiltrate, mast cell numbers, and the presence of interstitial edema. A semi-quantitative histological score was used, assigning: 1 for mild infiltrate, no edema; 2 for intermediate infiltration, little edema; and 3 for severe infiltration and edema.
(§5) Experiments in Example 7 were performed according to the general procedures described previously in Example 6. Mice were challenged with saline (untreated) or ovalbumin (treatment with vehicle or one of Compounds C-I at a dosage indicated in Table 6 in ug/kg).

[2] = Calcemia assessment in allergic IC mice (colorimetric serum calcium assay); format: in vivo, mouse; conditions: oral ug/kg: C 3, A 0.1, E 0.3, F 30, G 100, H 1, I 3; elevations p<0.001
Method: Serum calcemia was evaluated by a commercially available colorimetric assay (Calcium Dry-Fast, Sentinel CH. Italy). Briefly, 10 ul serum were added to 100 ul reaction solution prepared according to the manufacturer's procedure in a 96-wells plate. After 5 min incubation at RT samples were read at 570 nm with a spectrophotometer and the calcium levels were calculated in triplicate by using a standard reference as directed.

FcεR1α = assay: Taq-Man analysis of bladder mRNA, allergic IC in mice: FcεR1α; format: in vivo, mouse; conditions: ovalbumin challenged vs vehicle; oral ug/kg: E 0.3, F 30, H 1; E, H p<0.05, F p<0.001
Method: as §1, §2, §3, §4
(§6) Total RNA was extracted from one half of bladder by using RNeasy Mini kit (Qiagen), treated with DNase 1 (Qiagen) and reverse transcription performed with Reverse Transcription Reagent (Applied Biosystems) with Random Hexamers (according to the manufacturer's instructions). cDNA was synthesized from 1 ug of RNA. Real-Time PCR was performed in 96-well optical reaction plates (Applied Biosystems). For each sample we amplified both the target gene and the housekeeping gene (HPRT) in different wells (singleplex) and in duplicate. The amplification Master Mix was prepared according to the following protocol (volumes refer to a single well with a final volume of 40 ul/well)): 2× TaqMan® R Universal PCR Master Mix (Applied Biosystems, 4304437): 20 ul; 20× Assay target gene: 2 ul; H2O: 8 ul; cDNA: 10 ul. Reaction was run on an SDS 7000 (Applied Biosystems) instruments, with the following amplification program: 2′ at 50° C.; 10′ at 95° C.; 15″ at 95° C. and 1′ at 60° C. for 40 cycles; Cycle threshold (Ct) values were exported into Excel Worksheets for analysis and relative quantitations were performed using the ΔCt method. All primers used carried the FAM reporter.
as §5

MMCP4 = assay: Taq-Man analysis of bladder mRNA, allergic IC in mice: MMCP4; format: in vivo, mouse; conditions: ovalbumin challenged vs vehicle; oral ug/kg: E 0.3, F 30, H 1, I 3; H, I p<0.05, E, F p<0.001
Method: as §1, §2, §3, §4, §6, §5

[3] = tested on: allergen-induced chronic bladder inflammation; assay: Efficacy ranking in the allergen-induced chronic bladder inflammation model of interstitial cystitis; format: in vivo, mouse; conditions: each compound at its tested dosage
Method: as §5
Summarizing all the results presented above in Example 7, we can conclude that these compounds can be ranked with respect to their efficacy in reducing several parameters measuring inflammation of the bladder in the allergen-induced chronic bladder inflammation model of interstitial cystitis.

MMCP1 protein = assay: Serum level of mast-cell derived chymase MMCP1 protein, allergic IC in mice; format: in vivo, mouse; conditions: ovalbumin challenged vs vehicle; oral ug/kg: A 0.1, E 0.3, F 30; F p<0.05, A, E p<0.001
Method: as §1, §2, §3
Treatment Group: 10 mice were treated with oral vitamin D3 analogue (1-alpha-fluoro-25-hydroxy-16,23Ediene-26,27-bishomo-20-epi-cholecalciferol) Compound “B” for 14 days (daily dose of either 30 or 75 ug/kg).
as §4, §5

IL-13 = assay: Taq-Man analysis of bladder mRNA, allergic IC in mice: IL-13; format: in vivo, mouse; conditions: ovalbumin challenged vs vehicle; oral ug/kg: E 0.3, F 30, H 1, I 3; H, I p<0.05, E, F p<0.001
Method: as §1, §2, §3, §4, §6, §5

[4] = tested on: patients with interstitial cystitis; conditions: oral administration, long term basis; cited from earlier work
BPH cells = conditions: previously found; cited from earlier work

| Compound | numbers of mast cells in the bladder wall ([1]; 3 ug/kg oral vs vehicle) | serum calcium levels relative to the vehicle treated control group [2] | mRNA expression level of the FcεR1α gene (FcεR1α) | number of LMPC in the bladder wall [1] | mRNA expression level of MMCP4 gene (MMCP4) | Efficacy ranking in reducing parameters of bladder inflammation [3] | serum level of the MMCP1 protein (MMCP1 protein) | mRNA expression level of the IL-13 gene (IL-13) | patients who show a beneficial effect [4] | BPH cell proliferation (BPH cells) | mitogenic activity of growth factors KGF and IGF1 for BPH cells (BPH cells) |
| --- | --- | --- | --- | --- | --- | --- | --- | --- | --- | --- | --- |
| CC(=O)OC1C/C(=C/C=C2\CCC[C@]3(C)C(C(C)CCCC(C)(C)O)=CCC23)C[C@@H](OC(C)=O)C1 (stereo partly shown) [Compound C, 1,3-Di-O-acetyl-1,25-dihydroxy-16-ene-19-nor-cholecalciferol] | significantly reduced numbers | slight elevation | – | – | – | – | – | – | – | – | – |
| CC(=O)OC1C/C(=C/C=C2\CCC[C@@]3(C)C2CCC3C2(C/C=C/C(O)(C(F)(F)F)C(F)(F)F)CC2)C[C@@H](OC(C)=O)C1 (stereo partly shown) [Compound E, 1,3-Di-O-acetyl-1,25-dihydroxy-20-cyclopropyl-23E-ene-26,27-hexafluoro-19-nor-cholecalciferol] | – | slight elevation | statistically significant reductions | significant reduction | statistically significant reductions | Compound E>Compound F>Compound B>Compound H>Compound I>Compound A>Compound A=Compound G | statistically significant reduction | statistically significant reductions | – | – | – |
| pentosan polysulphate sodium [PPS] | – | – | – | – | – | – | – | – | less than 20% | – | – |
| C=C1CC[C@H](O)C/C1=C/C=C1\CCC[C@]2(C)[C@@H]([C@H](C)CCCC(C)C)CC[C@@H]12 [vitamin D3] | – | – | – | – | – | – | – | – | – | inhibited | counteracted |
| C=C1/C(=C\C=C2/CCC[C@@]3(C)C2CCC3C2(CCCC(C)(C)O)CC2)CC(OC(C)=O)C[C@@H]1OC(C)=O (stereo partly shown) [Compound F, 1,3-Di-O-acetyl-1,25-dihydroxy-20-cyclopropyl-cholecalciferol] | – | slight elevation | statistically significant reductions | – | statistically significant reductions | Compound E>Compound F>Compound B>Compound H>Compound I>Compound A>Compound A=Compound G | statistically significant reduction | statistically significant reductions | – | – | – |
| C=C1/C(=C\C=C2/CCC[C@]3(C)C(C4(CCCC(C)(C)O)CC4)=CCC23)CC(O)C[C@@H]1O (stereo partly drawn) [Compound H, 1α,25-Dihydroxy-16-ene-20-cyclopropyl-cholecalciferol] | – | slight elevation | statistically significant reductions | – | statistically significant reductions | Compound E>Compound F>Compound B>Compound H>Compound I>Compound A>Compound A=Compound G | – | statistically significant reductions | – | – | – |
| CC(C)(O)CCCC(CCCC(C)(C)O)[C@H]1CC[C@H]2/C(=C/C=C3C[C@@H](O)C[C@H](O)C3)CCC[C@]12C [Compound I, 1,25-dihydroxy-21-(3-hydroxy-3-methylbutyl)-19-nor-cholecalciferol] | – | slight elevation | – | significant reduction | statistically significant reductions | Compound E>Compound F>Compound B>Compound H>Compound I>Compound A>Compound A=Compound G | – | statistically significant reductions | – | – | – |
